Results reported in patent publication US20260007601A1, “IONIZABLE CATIONIC LIPID COMPOUND AND COMPOSITION FOR DELIVERING NUCLEIC ACID AND USE THEREOF” (BEIJING YOUCAREKECHUANG PHARMACEUTICAL TECHNOLOGY CO., LTD., priority 2023, published 2026).
Several values for one entry are separate records, joined by “and”; a condition that tells them apart may be missing. Equal values may be shown once.

Experiments:
[1] = system: 293T cells; assay: Cell survival rate assay (CCK-8); assay type: cell-based
Summary of the method: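 293T cells seeded at 10,000 per well and grown overnight, then exposed for 24 h to LNPs (cationic/neutral/structured/PEG lipids 49:10:39.5:1.5) carrying 1.5 μg Fluc-mRNA, or Lipofectamine 3000. Viability read by CCK-8, 1 h incubation, absorbance at 450 nm.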

[2] = system: 293T cells; assay: Fluorescence detection of Fluc-mRNA (cell transfection efficiency of LNP formulations); assay type: cell-based
Summary of the method: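 293T cells at 10,000 per well, adhered overnight, then given LNPs carrying 0.3 μg Fluc-mRNA (cationic:neutral:structured:polymer-conjugated lipid 49:10:39.5:1.5 molar). After 24 h, luciferase signal read with luciferase kit reagents on an IVIS imaging system as transfection efficiency.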

CCCCCCCCCCCOC(=O)CCCCCN(CCCCCCCC(=O)OC(CCCCCCCC)CCCCCCCC)CCN(C)CCO [YK-201, heptadecan-9-yl-8-(2-((2-hydroxyethyl)(methylamino))ethyl)(6-oxo-6-((undecanyloxy)hexyl)amino)octanoate] was tested, and the Cell survival rate ([1]; LNP containing 1.5 μg Fluc-mRNA, 24 hours, CCK-8) was 75.93%, the “cell survival rate higher (cytotoxicity reduced) compared with YK-221” value ([1]; difference of rates) was 55% and 54.98% and the “cell survival rate higher (toxicity lower) than that of YK-204” value ([1]; difference of rates) was 30% and 33.36%. For the same molecule, the “cell survival rate higher (toxicity lower) than that of YK-225” value ([1]; difference of rates) was 32.52%, the “cell survival rate higher than that of ALC-0315” value ([1]; difference of rates) was 25.97% and the “cell survival rate higher than that of HHMA” value ([1]; difference of rates) was 10.37%. The “cell survival rate higher than that of Lipofectamine 3000” value ([1]; difference of rates) was 52.88%, the “cell survival rate higher than that of SM-102” value ([1]; difference of rates) was 7.38% and the “cell survival rate higher than that of YK-203” value ([1]; difference of rates) was 40.37%. For the same molecule, the “cell survival rate higher than that of YK-205” value ([1]; difference of rates) was 17.01%, the “cell survival rate higher than that of YK-208” value ([1]; difference of rates) was 29.25% and the “cell survival rate higher than that of YK-210” value ([1]; difference of rates) was 37.55%. The “cell survival rate higher than that of YK-211” value ([1]; difference of rates) was 23.63%, the “cell survival rate higher than that of YK-212” value ([1]; difference of rates) was 40.67% and the “cell survival rate higher than that of YK-213” value ([1]; difference of rates) was 34.49%. The “cell survival rate higher than that of YK-214” value ([1]; difference of rates) was 50.35% and 50%, the “cell survival rate higher than that of YK-215” value ([1]; difference of rates) was 31.34% and the “cell survival rate higher than that of YK-216” value ([1]; difference of rates) was 30.13%. The “cell survival rate higher than that of YK-217” value ([1]; difference of rates) was 33.66%, the “cell survival rate higher than that of YK-219” value ([1]; difference of rates) was 17.32% and the “cell survival rate higher than that of YK-220” value ([1]; difference of rates) was 16.94%. For the same molecule, the “cell survival rate higher than that of YK-222” value ([1]; difference of rates) was 42.18%, the “cell survival rate higher than that of YK-223” value ([1]; difference of rates) was 39.29% and the “cell survival rate higher than that of YK-224” value ([1]; difference of rates) was 52.46%. For the same molecule, the “cell survival rate higher than that of YK-226” value ([1]; difference of rates) was 48.03%, the “cell survival rate higher than that of compound 21” value ([1]; difference of rates) was 6.91% and the “cell survival rate higher than that of compound 23” value ([1]; difference of rates) was 5.83%. The “RLU / cell transfection efficiency, times that of ALC-0315” value ([2]; Fluc-mRNA LNP) was 13.27 times, the “RLU / cell transfection efficiency, times that of HHMA” value ([2]; Fluc-mRNA LNP) was 13.56 times and the “RLU / cell transfection efficiency, times that of Lipofectamine 3000” value ([2]; Fluc-mRNA LNP) was 23.71 times. For the same molecule, the “RLU / cell transfection efficiency, times that of YK-009” value ([2]; Fluc-mRNA LNP) was 5.56 times, the “RLU / cell transfection efficiency, times that of compound 21” value ([2]; Fluc-mRNA LNP) was 20.04 times and the “RLU / cell transfection efficiency, times that of compound 23” value ([2]; Fluc-mRNA LNP) was 21.38 times. The “cell transfection efficiency, times that of YK-223” value ([2]; Fluc-mRNA LNP) was 379.71 times, the “cell transfection efficiency, times that of YK-224” value ([2]; Fluc-mRNA LNP) was 323.59 times and the “cell transfection efficiency, times that of YK-226” value ([2]; Fluc-mRNA LNP) was 493.98 times. For the same molecule, the “fluorescence absorption value / cell transfection efficiency, times that of YK-203” value ([2]; Fluc-mRNA LNP) was 7.36 times, the “fluorescence absorption value / cell transfection efficiency, times that of YK-204” value ([2]; Fluc-mRNA LNP) was 78 times and 78.25 times and the “fluorescence absorption value / cell transfection efficiency, times that of YK-205” value ([2]; Fluc-mRNA LNP) was 27.68 times. The “fluorescence absorption value / cell transfection efficiency, times that of YK-208” value ([2]; Fluc-mRNA LNP) was 7.38 times, the “fluorescence absorption value / cell transfection efficiency, times that of YK-210” value ([2]; Fluc-mRNA LNP) was 6.15 times and the “fluorescence absorption value / cell transfection efficiency, times that of YK-211” value ([2]; Fluc-mRNA LNP) was 20.79 times. For the same molecule, the “fluorescence absorption value / cell transfection efficiency, times that of YK-212” value ([2]; Fluc-mRNA LNP) was 7.28 times, the “fluorescence absorption value / cell transfection efficiency, times that of YK-213” value ([2]; Fluc-mRNA LNP) was 20.87 times and the “fluorescence absorption value / cell transfection efficiency, times that of YK-214” value ([2]; Fluc-mRNA LNP) was 6.22 times. For the same molecule, the “fluorescence absorption value / cell transfection efficiency, times that of YK-215” value ([2]; Fluc-mRNA LNP) was 29.03 times, the “fluorescence absorption value / cell transfection efficiency, times that of YK-216” value ([2]; Fluc-mRNA LNP) was 12.49 times and the “fluorescence absorption value / cell transfection efficiency, times that of YK-217” value ([2]; Fluc-mRNA LNP) was 396.42 times. The “fluorescence absorption value / cell transfection efficiency, times that of YK-218” value ([2]; Fluc-mRNA LNP) was 46.92 times, the “fluorescence absorption value / cell transfection efficiency, times that of YK-219” value ([2]; Fluc-mRNA LNP) was 18.91 times and the “fluorescence absorption value / cell transfection efficiency, times that of YK-220” value ([2]; Fluc-mRNA LNP) was 131.62 times. The “fluorescence absorption value, times that of YK-222” value ([2]; Fluc-mRNA LNP) was 46.97 times, the “Relative light unit (RLU)” value ([2]; LNP containing 0.3 μg Fluc-mRNA, 24 hours) was 28482617 RLU and the “Multiples of values that equivalent to YK-201” value ([2]; RLU of YK-201 / RLU of the named lipid) was 1.00. For the same molecule, the “Multiples of values that equivalent to YK-202” value ([2]; RLU of YK-202 / RLU of the named lipid) was 1.05 and the “Ratio relative to SM-102” value ([2]; RLU of the named lipid / RLU of SM-102, times that of SM-102) was 17.10.
